Measurements: patent publication US9676715B2, “Bis-indolic derivatives, a process for preparing the same and their uses as a drug” (UNIVERSITE JOSEPH FOURIER, priority 2011, dated 2017)

Tests used:
[1] = tested on: S. aureus ATCC 25923; experiment: Time-kill curves; assay type: cell-based, Staphylococcus aureus
Procedure: FIG. 2 presents the time-kill curve of compound 3f (tested at MIC×4, 8 or 16) obtained with S. aureus ATCC 25923.
The method described by Motyl et al. [M. Motyl, K. Dorso, J. Barrett, R. Giacobbe, Basic Microbiological Techniques Used in Antibacterial Drug Discovery. Current Protocols in Pharmacology. UNIT 13A.3. January, 2006] was used.
Killing curves corresponded to the measure of the kinetic of bactericidal activity of indolic compounds over time (time-kill curves) or after 18 h incubation of cultures according to different drug concentrations (concentration-killing curves). Sterile tubes were inoculated with: 1/sterile Mueller Hinton broth, to serve as negative control; 2/a drug-free bacterial inoculum, to serve as a growth control; 3/a bacterial inoculum (10^5 CFU/mL of final concentration) with various concentrations of the tested indolic compound. The tubes were incubated at 37° C. with agitation (50 rpm). Bacterial inocula are determined in each tube using the CFU count method at the beginning of the experiments, and then after 18 h for concentration-killing curves, or after 1 h, 2 h, 4 h, 8 h and 18 h for time-kill curves. A significant bactericidal effect corresponds to reduction of the initial bacterial load of 3 logs or more at any time of incubation.

| Structure (SMILES) | melting point [°C] | bacterial regrowth (time-kill curve) ([1]; 4×MIC, incubation prolonged to 18 h) | bactericidal activity (time-kill curve) ([1]; after 8 h incubation, 4×, 8× and 16× the MIC) |
| --- | --- | --- | --- |
| CC(NC(=O)c1c[nH]c2ccc(Br)cc12)c1c[nH]c2ccc(Br)cc12 (stereo not drawn) [Compound 4, 5-Bromo-N-(1-(5-bromo-1H-indol-3-yl)ethyl)-1H-indole-3-carboxamide] | 144 | – | – |
| CC(C)(C)OC(=O)NCC(NC(=O)c1c[nH]c2ccc(Br)cc12)c1c[nH]c2ccc(Br)cc12 (stereo not drawn) [Compound 3f, tert-Butyl(2-(5-bromo-1H-indol-3-yl)-2-(5-bromo-1H-indolyl-3-carboxamido)ethyl)carbamate] | – | progressive bacterial regrowth | significant bactericidal activity |
